Laboratory results taken from ChEMBL document CHEMBL1201862, “PubChem BioAssay data set” (2004).
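A five-concentration, 48-hour dose response in 96-well plates underlies each endpoint, interpolated linearly between surrounding concentrations. Here, GI50 denotes the concentration required for 50% inhibition of growth.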 The source made the active and inactive calls. Rule as the data show it: active = GI50 up to about 1.1 µM and inactive = higher.

Assays:
Assay in all cases: DTP human tumour cell line panel, 48 h
A498 = system: A498
A549 = system: A549
ACHN = system: ACHN
CAKI-1 = system: CAKI-1
CCRF-CEM = system: CCRF-CEM
COLO 205 = system: COLO 205
DLD-1 = system: DLD-1
DMS-114 = system: DMS-114
DMS-273 = system: DMS-273
EKVX = system: EKVX
HCC 2998 = system: HCC 2998
HCT-116 = system: HCT-116
HCT-15 = system: HCT-15
HL-60 = system: HL-60
HOP-62 = system: HOP-62
HOP-92 = system: HOP-92
HT-29 = system: HT-29
IGROV-1 = system: IGROV-1
K562 = system: K562
KM-20L2 = system: KM-20L2
KM12 = system: KM12
LXFL 529 = system: LXFL 529
M14 = system: M14
M19-MEL = system: M19-MEL
MOLT-4 = system: MOLT-4
Malme-3M = system: Malme-3M
NCI-H226 = system: NCI-H226
NCI-H23 = system: NCI-H23
NCI-H460 = system: NCI-H460
NCI-H522 = system: NCI-H522
OVCAR-3 = system: OVCAR-3
OVCAR-4 = system: OVCAR-4
OVCAR-5 = system: OVCAR-5
OVCAR-8 = system: OVCAR-8
RPMI-8226 = system: RPMI-8226
SF-268 = system: SF-268
SF-295 = system: SF-295
SF-539 = system: SF-539
SK-MEL-28 = system: SK-MEL-28
SK-MEL-2 = system: SK-MEL-2
SK-MEL-5 = system: SK-MEL-5
SK-OV-3 = system: SK-OV-3
SN12C = system: SN12C
SNB-19 = system: SNB-19
SNB-75 = system: SNB-75
SNB-78 = system: SNB-78
SR = system: SR
SW-620 = system: SW-620
TK-10 = system: TK-10
U-251 = system: U-251
UACC-257 = system: UACC-257
UACC-62 = system: UACC-62
UO-31 = system: UO-31
XF498 = system: XF498
786-0 = system: 786-0
HOP-18 = system: HOP-18
LOX IMVI = system: LOX IMVI
RXF 393 = system: RXF 393

Q: For CO/C(=N\N=Cc1ccccc1)c1ccncc1, which GI50 (A498) is on record?
A: > 100 µM (inactive)

Q: And the GI50 (A549)?
A: > 100 µM (inactive)

Q: And the GI50 (ACHN)?
A: > 100 µM (inactive)

Q: What about the GI50 (CAKI-1) of the same compound?
A: > 100 µM (inactive)

Q: And the GI50 (CCRF-CEM)?
A: > 100 µM (inactive)

Q: And the GI50 (COLO 205)?
A: > 100 µM (inactive)

Q: And the GI50 (DLD-1)?
A: > 100 µM (inactive)

Q: What about the GI50 (DMS-114) of the same compound?
A: > 100 µM (inactive)

Q: And the GI50 (DMS-273)?
A: > 100 µM (inactive)

Q: What about the GI50 (EKVX) of the same compound?
A: > 100 µM (inactive)

Q: And the GI50 (HCC 2998)?
A: > 100 µM (inactive)

Q: And the GI50 (HCT-116)?
A: > 100 µM (inactive)

Q: What about the GI50 (HCT-15) of the same compound?
A: > 100 µM

Q: What about the GI50 (HL-60) of the same compound?
A: > 100 µM (inactive)

Q: What about the GI50 (HOP-62) of the same compound?
A: > 100 µM (inactive)

Q: And the GI50 (HOP-92)?
A: > 100 µM (inactive)

Q: And the GI50 (HT-29)?
A: > 100 µM (inactive)

Q: And the GI50 (IGROV-1)?
A: > 100 µM (inactive)

Q: And the GI50 (K562)?
A: > 100 µM (inactive)

Q: What about the GI50 (KM-20L2) of the same compound?
A: > 100 µM (inactive)

Q: What about the GI50 (KM12) of the same compound?
A: > 100 µM (inactive)

Q: What about the GI50 (LXFL 529) of the same compound?
A: > 100 µM (inactive)

Q: What about the GI50 (M14) of the same compound?
A: > 100 µM (inactive)

Q: What about the GI50 (M19-MEL) of the same compound?
A: > 100 µM (inactive)

Q: And the GI50 (MOLT-4)?
A: > 100 µM (inactive)

Q: What about the GI50 (Malme-3M) of the same compound?
A: > 100 µM (inactive)

Q: And the GI50 (NCI-H226)?
A: 12.6 µM (inactive)

Q: What about the GI50 (NCI-H23) of the same compound?
A: > 100 µM (inactive)

Q: And the GI50 (NCI-H460)?
A: > 100 µM (inactive)

Q: And the GI50 (NCI-H522)?
A: 68.9 µM (inactive)

Q: What about the GI50 (OVCAR-3) of the same compound?
A: > 100 µM (inactive)

Q: What about the GI50 (OVCAR-4) of the same compound?
A: > 100 µM (inactive)

Q: What about the GI50 (OVCAR-5) of the same compound?
A: > 100 µM (inactive)

Q: And the GI50 (OVCAR-8)?
A: > 100 µM (inactive)

Q: And the GI50 (RPMI-8226)?
A: > 100 µM (inactive)

Q: And the GI50 (SF-268)?
A: > 100 µM (inactive)

Q: And the GI50 (SF-295)?
A: > 100 µM (inactive)

Q: What about the GI50 (SF-539) of the same compound?
A: > 100 µM (inactive)

Q: And the GI50 (SK-MEL-28)?
A: > 100 µM (inactive)

Q: And the GI50 (SK-MEL-2)?
A: > 100 µM (inactive)

Q: And the GI50 (SK-MEL-5)?
A: > 100 µM (inactive)

Q: And the GI50 (SK-OV-3)?
A: > 100 µM (inactive)

Q: What about the GI50 (SN12C) of the same compound?
A: > 100 µM (inactive)

Q: And the GI50 (SNB-19)?
A: > 100 µM (inactive)

Q: What about the GI50 (SNB-75) of the same compound?
A: 31.3 µM (inactive)

Q: What about the GI50 (SNB-78) of the same compound?
A: > 100 µM (inactive)

Q: And the GI50 (SR)?
A: > 100 µM (inactive)

Q: What about the GI50 (SW-620) of the same compound?
A: > 100 µM (inactive)

Q: What about the GI50 (TK-10) of the same compound?
A: > 100 µM (inactive)

Q: And the GI50 (U-251)?
A: > 100 µM (inactive)

Q: And the GI50 (UACC-257)?
A: > 100 µM (inactive)

Q: What about the GI50 (UACC-62) of the same compound?
A: > 100 µM (inactive)

Q: And the GI50 (UO-31)?
A: 47.2 µM (inactive)

Q: And the GI50 (XF498)?
A: 47.5 µM (inactive)

Q: CC1(C)OC2OC(COC(=O)C(c3ccccc3)c3ccccc3)C3OC(C)(C)OC3C2O1 (stereo unspecified) was tested. Which GI50 (786-0) did it give?
A: 24.7 µM (inactive)

Q: What about the GI50 (A498) of the same compound?
A: > 10 µM (inactive)

Q: What about the GI50 (A549) of the same compound?
A: 26.1 µM (inactive)

Q: And the GI50 (ACHN)?
A: 29.7 µM (inactive)

Q: What about the GI50 (CAKI-1) of the same compound?
A: > 10 µM (inactive)

Q: What about the GI50 (CCRF-CEM) of the same compound?
A: 17.1 µM (inactive)

Q: And the GI50 (COLO 205)?
A: 31 µM (inactive)

Q: What about the GI50 (DLD-1) of the same compound?
A: 7.98 µM (inactive)

Q: What about the GI50 (DMS-114) of the same compound?
A: 22.2 µM (inactive)

Q: And the GI50 (DMS-273)?
A: 9.02 µM (inactive)

Q: What about the GI50 (EKVX) of the same compound?
A: > 10 µM (inactive)

Q: What about the GI50 (HCC 2998) of the same compound?
A: > 10 µM (inactive)

Q: And the GI50 (HCT-116)?
A: > 10 µM (inactive)

Q: What about the GI50 (HCT-15) of the same compound?
A: 6.73 µM

Q: And the GI50 (HL-60)?
A: 4.21 µM (inactive)

Q: What about the GI50 (HOP-18) of the same compound?
A: > 10 µM (inactive)

Q: And the GI50 (HOP-62)?
A: > 10 µM (inactive)

Q: And the GI50 (HOP-92)?
A: 61.8 µM (inactive)

Q: And the GI50 (HT-29)?
A: 8.79 µM (inactive)

Q: And the GI50 (IGROV-1)?
A: > 10 µM (inactive)

Q: And the GI50 (K562)?
A: 4.29 µM (inactive)

Q: And the GI50 (KM-20L2)?
A: 50.2 µM (inactive)

Q: And the GI50 (KM12)?
A: 5.87 µM (inactive)

Q: And the GI50 (LOX IMVI)?
A: 9.68 µM (inactive)

Q: What about the GI50 (LXFL 529) of the same compound?
A: > 10 µM (inactive)

Q: What about the GI50 (M14) of the same compound?
A: 93.1 µM (inactive)

Q: What about the GI50 (M19-MEL) of the same compound?
A: 66.7 µM (inactive)

Q: And the GI50 (MOLT-4)?
A: 5.02 µM (inactive)

Q: What about the GI50 (Malme-3M) of the same compound?
A: 46.8 µM (inactive)

Q: What about the GI50 (NCI-H226) of the same compound?
A: > 10 µM (inactive)

Q: What about the GI50 (NCI-H23) of the same compound?
A: 20.1 µM (inactive)

Q: And the GI50 (NCI-H460)?
A: 4.84 µM (inactive)

Q: What about the GI50 (NCI-H522) of the same compound?
A: 21.6 µM (inactive)

Q: What about the GI50 (OVCAR-3) of the same compound?
A: > 10 µM (inactive)

Q: And the GI50 (OVCAR-4)?
A: 8.71 µM (inactive)

Q: And the GI50 (OVCAR-5)?
A: > 10 µM (inactive)

Q: What about the GI50 (OVCAR-8) of the same compound?
A: 53 µM (inactive)

Q: What about the GI50 (RPMI-8226) of the same compound?
A: 4.5 µM (inactive)

Q: What about the GI50 (RXF 393) of the same compound?
A: 12.3 µM (inactive)

Q: What about the GI50 (SF-268) of the same compound?
A: 16.9 µM (inactive)

Q: What about the GI50 (SF-295) of the same compound?
A: 10.7 µM (inactive)

Q: And the GI50 (SF-539)?
A: 95.9 µM (inactive)

Q: What about the GI50 (SK-MEL-28) of the same compound?
A: 43.5 µM (inactive)

Q: What about the GI50 (SK-MEL-2) of the same compound?
A: 46.8 µM (inactive)

Q: And the GI50 (SK-MEL-5)?
A: 7.11 µM (inactive)

Q: What about the GI50 (SK-OV-3) of the same compound?
A: > 10 µM (inactive)

Q: And the GI50 (SN12C)?
A: 90.2 µM (inactive)

Q: What about the GI50 (SNB-19) of the same compound?
A: 66.7 µM (inactive)

Q: What about the GI50 (SNB-75) of the same compound?
A: 17.1 µM (inactive)

Q: And the GI50 (SR)?
A: > 10 µM (inactive)

Q: What about the GI50 (SW-620) of the same compound?
A: 6.87 µM (inactive)

Q: And the GI50 (TK-10)?
A: > 10 µM (inactive)

Q: What about the GI50 (U-251) of the same compound?
A: > 10 µM (inactive)

Q: What about the GI50 (UACC-257) of the same compound?
A: > 10 µM (inactive)

Q: And the GI50 (UACC-62)?
A: 9.27 µM (inactive)

Q: What about the GI50 (UO-31) of the same compound?
A: 35.5 µM (inactive)

Q: And the GI50 (XF498)?
A: 14.7 µM (inactive)
